MIC and IC50 data for 15 compounds are collected here from article PMC6143291 (The Journal of organic chemistry, 2017).

Usually MIC stands for the lowest concentration found to suppress growth. Low values mean greater potency, high ones weaker potency. For orientation: IC50 means the midpoint of a concentration-inhibition curve.

In brackets after ≈: the same amount, converted by molar mass. Where only a bound is given, the exact number is not on record here.

For one assay, the system named is Mtb H37Rv. In words: Microplate Alamar blue assay. It counts as cell-based, Mycobacterium tuberculosis. To be noted: MABA, 2-fold serial dilution, read on day seven. A general note: Alamar Blue is a resazurin reagent that responds to reducing activity.
On to `O=c1c2ccccc2[se]n1C12CC3CC(CC(C3)C1)C2` [1l, 2-((3R,5S)-Adamantan-1-yl)benzo[d][1,2]-selenazol-3(2H)-one], for which the MIC stood at 50 µg/mL (≈ 150 µM).

The target in the next assay is Mtb Ag85C (Mycobacterium tuberculosis, UniProt P9WQN9). In words: Fluorometric resorufin butyrate assay, apparent IC50 after 15 min incubation. It counts as biochemical.
Sequence of Mtb Ag85C (P9WQN9 46-340 limits assumed): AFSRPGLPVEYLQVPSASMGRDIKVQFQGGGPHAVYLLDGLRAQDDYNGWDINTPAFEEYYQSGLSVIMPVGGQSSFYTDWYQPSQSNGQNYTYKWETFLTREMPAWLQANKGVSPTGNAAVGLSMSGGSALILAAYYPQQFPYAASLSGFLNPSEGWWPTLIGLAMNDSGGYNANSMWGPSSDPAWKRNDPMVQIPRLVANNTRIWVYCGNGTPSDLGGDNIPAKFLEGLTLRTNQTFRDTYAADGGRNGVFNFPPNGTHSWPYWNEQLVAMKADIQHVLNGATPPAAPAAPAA
Conditions: not given
On to `O=c1c2ccccc2[se]n1-c1ccccc1` [1a, 2-Phenylbenzo[d][1,2]selenazol-3(2H)-one, reference compound], for which the IC50 came to 5120 nM.
Still for that read-out and setting: in the case of `COc1ccc(Cn2[se]c3ccccc3c2=O)cc1` [1b, 2-(4-Methoxybenzyl)benzo[d][1,2]selenazol-3(2H)-one] it was 540 nM; in that of `COc1ccccc1Cn1[se]c2ccccc2c1=O` [1c, 2-(2-Methoxybenzyl)benzo[d][1,2]selenazol-3(2H)-one], 28600 nM.
Consider `COc1ccc(-n2[se]c3ccccc3c2=O)cc1` [1d, 2-(4-Methoxyphenyl)benzo[d][1,2]selenazol-3(2H)-one], for which the IC50 was 1200 nM.
Same read-out and setting: in the case of `O=c1c2ccccc2[se]n1Cc1ccccc1` [1e, 2-Benzylbenzo[d][1,2]selenazol-3(2H)-one] it was 6500 nM; in that of `O=c1c2ccccc2[se]n1CC1CCCCC1` [1g, 2-(Cyclohexylmethyl)benzo[d][1,2]selenazol-3(2H)-one], 5300 nM.
On the same count and under the same terms, in the case of `O=c1c2ccccc2[se]n1-c1ccc(F)cc1` [1h, 2-(4-Fluorophenyl)benzo[d][1,2]selenazol-3(2H)-one] it was 720 nM.
Same read-out and setting: in the case of `O=c1c2ccccc2[se]n1-c1ccccc1F` [1i, 2-(2-Fluorophenyl)benzo[d][1,2]selenazol-3(2H)-one] it was 1000 nM; in that of `[N-]=[N+]=Nc1ccc(-n2[se]c3ccccc3c2=O)cc1` [1j, 2-(4-Azidophenyl)benzo[d][1,2]selenazol-3(2H)-one], 1100 nM.
Take `CC(C)(C)n1[se]c2ccccc2c1=O` [1k, 2-(tert-Butyl)benzo[d][1,2]selenazol-3(2H)-one]: the IC50 turned out to be 1500 nM.
Still for that read-out and setting: in the case of `O=c1c2ccccc2[se]n1C1CCCC1` [1m, 2-Cyclopentylbenzo[d][1,2]selenazol-3(2H)-one] it was 4100 nM.
Same read-out and setting: to `O=c1c2ccccc2[se]n1C1CCCCC1` [1n, 2-Cyclohexylbenzo[d][1,2]selenazol-3(2H)-one] belongs 3700 nM.
Still for that read-out and setting: in the case of `[N-]=[N+]=Nc1ccc(NC(=O)c2ccccc2[Se]C#Cc2ccccc2)cc1` [compound 8, N-(4-Azidophenyl)-2-((phenylethynyl)selanyl)-benzamide] it was > 100000 nM; in that of `O=C(CCCCC1SC[C@@H]2NC(=O)N[C@H]12)NCCOCCOCCOCCNC(=O)CCC(=O)N1Cc2ccccc2-c2nnn(-c3ccc(-n4[se]c5ccccc5c4=O)cc3)c2-c2ccccc21` (stereo partly drawn) [compound 10, N-(13,16-Dioxo-16-(3-(4-(3-oxobenzo[d][1,2]-selenazol-2(3H)-yl)phenyl)-3,9-dihydro-8H-dibenzo[b,f][1,2,3]-triazolo[4,5-d]azocin-8-yl)-3,6,9-trioxa-12-azahexadecyl)-5-((3aS,6aR)-2-oxohexahydro-1H-thieno[3,4-d]imidazol-4-yl)-pentanamide], 2020 nM.
